Laboratory results as given in BindingDB's records for doi:10.1016/j.chembiol.2005.12.008 (Academia Sinica, 2006).

Target: Replicase polyprotein 1ab (Severe acute respiratory syndrome coronavirus, UniProt P0C6X7)
Experiment: Inhibition Assay
Details: pH 7.5
Source text: Inhibition assay against SARS-CoV 3CL protease, a fluorometric assay was utilized to determine the inhibition constants of the samples.

## O=C(Cn1nnc2ccccc21)c1ccc([N+](=O)[O-])cc1 [Benzotriazole ester, 13]
  IC50: > 50 µM

## Nc1ccc(C(=O)Cn2nnc3ccccc32)cc1 [Benzotriazole ester, 15]
  IC50: > 50 µM

## Nc1ccc(C(O)Cn2nnc3ccccc32)cc1 (stereo not given) [Benzotriazole ester, 16]
  IC50: > 50 µM

## CNc1ccc(C(O)Cn2nnc3ccccc32)cc1 (stereo not given) [Benzotriazole ester, 19]
  Ki: > 50 µM

## CN(C)c1ccc(C(O)Cn2nnc3ccccc32)cc1 (stereo not given) [Benzotriazole ester, 20]
  Ki: > 50 µM
